Data on eight molecules can be found in patent publication US20180280377A1, “Imidazo[4,5-c]quinolin-2-one Compounds and Their Use in Treating Cancer” (ASTRAZENECA AB, priority 2015, published 2018).

Molecules are shown by their SMILES.

In experiment [1] the target is T1, ATM (Homo sapiens, UniProt Q13315).
T1 construct: endogenous in cells; host or cells: HT29 cells (ECACC #85061109)
Briefly: ATM cellular potency assay (pATM Ser1981 in irradiated HT29 cells). The experiment is classed as cell-based. The note with it: 1 h compound, X-ray irradiation, pATM (Ser1981); Table 2; read-out: Assay a) ATM Cell IC50.

The target in experiment [2] is T2, ATR (Homo sapiens, UniProt Q13535).
T2 construct: endogenous in cells; host or cells: HT29 cells (ECACC #85061109)
Briefly: ATR cellular potency assay (pChk1 Ser345 in HT29 cells after 4NQO). The class given is cell-based. The conditions noted are these: pChk1 (Ser 345); Table 2; read-out: Assay b) ATR Cell IC50.

T1 sequence (Q13315 whole entry): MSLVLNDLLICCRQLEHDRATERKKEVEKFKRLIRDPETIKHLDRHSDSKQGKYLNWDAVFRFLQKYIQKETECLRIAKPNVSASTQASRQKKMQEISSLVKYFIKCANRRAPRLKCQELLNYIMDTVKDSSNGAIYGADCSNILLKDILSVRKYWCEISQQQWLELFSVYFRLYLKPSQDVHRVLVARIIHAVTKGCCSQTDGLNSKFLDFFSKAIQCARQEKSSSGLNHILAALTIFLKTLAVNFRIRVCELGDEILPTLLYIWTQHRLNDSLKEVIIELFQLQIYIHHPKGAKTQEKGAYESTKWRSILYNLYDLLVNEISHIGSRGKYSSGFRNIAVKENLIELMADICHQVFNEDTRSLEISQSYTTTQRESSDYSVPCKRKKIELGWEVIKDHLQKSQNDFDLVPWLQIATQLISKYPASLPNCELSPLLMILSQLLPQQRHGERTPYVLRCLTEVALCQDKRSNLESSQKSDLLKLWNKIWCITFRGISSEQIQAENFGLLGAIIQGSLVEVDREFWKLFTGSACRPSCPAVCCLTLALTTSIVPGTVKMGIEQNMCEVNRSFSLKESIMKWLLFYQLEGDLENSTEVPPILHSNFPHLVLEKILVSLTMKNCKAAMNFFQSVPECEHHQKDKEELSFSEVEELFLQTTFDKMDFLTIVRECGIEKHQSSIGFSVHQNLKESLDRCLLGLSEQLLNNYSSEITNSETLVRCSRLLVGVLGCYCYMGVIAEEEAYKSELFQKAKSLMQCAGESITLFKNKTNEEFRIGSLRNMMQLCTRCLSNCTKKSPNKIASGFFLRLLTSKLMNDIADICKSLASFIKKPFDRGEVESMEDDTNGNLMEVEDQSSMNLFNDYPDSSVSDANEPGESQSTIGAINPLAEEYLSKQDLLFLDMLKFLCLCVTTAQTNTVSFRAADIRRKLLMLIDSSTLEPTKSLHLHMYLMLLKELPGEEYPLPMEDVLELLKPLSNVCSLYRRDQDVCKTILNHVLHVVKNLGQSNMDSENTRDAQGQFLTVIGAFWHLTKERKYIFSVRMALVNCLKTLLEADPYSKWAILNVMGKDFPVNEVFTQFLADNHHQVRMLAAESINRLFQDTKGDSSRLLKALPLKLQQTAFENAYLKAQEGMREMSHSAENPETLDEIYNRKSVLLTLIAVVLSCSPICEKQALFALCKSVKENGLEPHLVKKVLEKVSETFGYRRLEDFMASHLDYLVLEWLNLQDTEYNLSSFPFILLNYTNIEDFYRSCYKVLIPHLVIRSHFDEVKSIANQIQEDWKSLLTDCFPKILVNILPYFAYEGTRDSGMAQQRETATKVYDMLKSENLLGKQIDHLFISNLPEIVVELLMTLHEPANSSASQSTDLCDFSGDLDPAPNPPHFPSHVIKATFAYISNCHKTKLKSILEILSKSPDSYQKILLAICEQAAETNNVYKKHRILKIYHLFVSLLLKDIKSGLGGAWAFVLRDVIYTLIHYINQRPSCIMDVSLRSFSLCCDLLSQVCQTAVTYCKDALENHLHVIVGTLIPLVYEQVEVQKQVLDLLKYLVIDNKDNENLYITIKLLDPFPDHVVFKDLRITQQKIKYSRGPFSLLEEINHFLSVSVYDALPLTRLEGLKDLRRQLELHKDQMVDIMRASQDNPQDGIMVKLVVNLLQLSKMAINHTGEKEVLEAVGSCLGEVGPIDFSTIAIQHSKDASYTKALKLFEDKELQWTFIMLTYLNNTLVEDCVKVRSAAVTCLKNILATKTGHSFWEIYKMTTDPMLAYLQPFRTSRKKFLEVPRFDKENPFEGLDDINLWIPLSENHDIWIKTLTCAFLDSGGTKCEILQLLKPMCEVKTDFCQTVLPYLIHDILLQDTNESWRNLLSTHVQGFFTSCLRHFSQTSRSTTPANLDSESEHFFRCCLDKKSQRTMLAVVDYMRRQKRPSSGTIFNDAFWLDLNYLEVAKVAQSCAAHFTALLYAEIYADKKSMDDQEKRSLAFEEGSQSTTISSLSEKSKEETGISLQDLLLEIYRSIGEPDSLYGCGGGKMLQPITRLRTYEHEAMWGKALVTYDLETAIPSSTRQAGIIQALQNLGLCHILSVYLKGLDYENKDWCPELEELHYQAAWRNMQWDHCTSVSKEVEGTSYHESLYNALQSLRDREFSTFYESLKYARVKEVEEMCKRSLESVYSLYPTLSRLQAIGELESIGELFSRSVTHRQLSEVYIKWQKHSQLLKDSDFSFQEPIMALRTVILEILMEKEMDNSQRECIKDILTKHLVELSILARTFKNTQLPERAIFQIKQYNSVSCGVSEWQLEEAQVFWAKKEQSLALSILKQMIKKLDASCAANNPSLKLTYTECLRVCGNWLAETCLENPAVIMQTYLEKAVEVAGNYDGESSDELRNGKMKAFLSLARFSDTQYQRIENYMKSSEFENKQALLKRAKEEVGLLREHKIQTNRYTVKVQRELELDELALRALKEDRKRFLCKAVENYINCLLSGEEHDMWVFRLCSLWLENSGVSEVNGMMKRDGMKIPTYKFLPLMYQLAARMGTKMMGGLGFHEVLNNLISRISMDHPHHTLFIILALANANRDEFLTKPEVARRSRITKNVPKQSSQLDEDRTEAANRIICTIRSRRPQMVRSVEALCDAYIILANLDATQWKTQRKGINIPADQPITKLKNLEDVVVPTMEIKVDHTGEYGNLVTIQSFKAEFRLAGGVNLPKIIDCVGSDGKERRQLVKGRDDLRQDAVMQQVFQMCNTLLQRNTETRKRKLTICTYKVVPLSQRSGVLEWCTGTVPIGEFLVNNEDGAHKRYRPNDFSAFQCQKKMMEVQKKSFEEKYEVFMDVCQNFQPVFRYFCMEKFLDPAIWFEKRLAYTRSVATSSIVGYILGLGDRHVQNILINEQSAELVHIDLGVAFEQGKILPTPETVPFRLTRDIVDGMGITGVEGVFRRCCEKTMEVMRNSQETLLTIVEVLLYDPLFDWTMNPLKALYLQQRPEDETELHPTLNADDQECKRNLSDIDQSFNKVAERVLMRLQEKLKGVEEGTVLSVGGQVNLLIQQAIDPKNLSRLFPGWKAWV

For `CO[C@H]1CC[C@H](n2c(=O)n(C)c3cnc4ccc(-c5ccc(N6CCC(N(C)C)CC6)nc5)cc4c32)C1` (single isomer, unassigned) [Example 32, 8-[6-[4-(dimethylamino)-1-piperidyl]-3-pyridyl]-1-[trans-3-methoxycyclopentyl]-3-methyl-imidazo[4,5-c]quinolin-2-one], the figures for the IC50 in experiment [1] and in experiment [2] were 0.307 nM and > 30000 nM, respectively.

Turning to `CN(C)[C@@H]1CCN(c2ccc(-c3ccc4ncc5c(c4c3)n([C@@H]3CCCOC3)c(=O)n5C)cn2)C1` [Example 7], the values for the IC50 in experiment [1] and in experiment [2] were 0.626 nM and 1420 nM, respectively.

`CN(C)[C@H]1CCN(c2ccc(-c3cc4c(cc3F)ncc3c4n([C@H]4CCCOC4)c(=O)n3C)cn2)C1` [Example 20]: the IC50 (in general, the point on the concentration scale where inhibition reaches its midpoint) was 36.5 nM in experiment [1] and > 30000 nM in experiment [2].

`CO[C@H]1C[C@@H](n2c(=O)n(C)c3cnc4cc(F)c(-c5ccc(N6CC(N(C)C)C6)nc5)cc4c32)C1` [Example 31, 8-[6-[3-(dimethylamino)azetidin-1-yl]-3-pyridyl]-7-fluoro-1-(cis-3-methoxycyclobutyl)-3-methyl-imidazo[4,5-c]quinolin-2-one]: the concentration for half-maximal inhibition (IC50) in experiment [1] is 33.8 nM; in experiment [2] it was > 30000 nM.

Consider `CO[C@H]1C[C@@H](n2c(=O)n(C)c3cnc4ccc(-c5ccc(N6CCC(N(C)C)CC6)nc5)cc4c32)C1` [Example 36, 8-[6-[4-(dimethylamino)-1-piperidyl]-3-pyridyl]-1-(cis-3-methoxycyclobutyl)-3-methyl-imidazo[4,5-c]quinolin-2-one], for which the IC50 is 0.357 nM in experiment [1] and > 30000 nM in experiment [2].

Take `CO[C@H]1C[C@@H](n2c(=O)n(C)c3cnc4cc(F)c(-c5ccc(N6CCC(N(C)C)CC6)nc5)cc4c32)C1` [Example 42, 8-[6-[4-(dimethylamino)-1-piperidyl]-3-pyridyl]-7-fluoro-1-(cis-3-methoxycyclobutyl)-3-methyl-imidazo[4,5-c]quinolin-2-one]: the IC50 is 1.54 nM in experiment [1] and > 30000 nM in experiment [2].

Turning to `CNC1CCN(c2ccc(-c3cc4c(cc3F)ncc3c4n([C@H]4C[C@@H](OC)C4)c(=O)n3C)cn2)CC1` [Example 57, 7-Fluoro-1-(cis-3-methoxycyclobutyl)-3-methyl-8-[6-[4-(methylamino)-1-piperidyl]-3-pyridyl]imidazo[4,5-c]quinolin-2-one], the IC50 is 1.16 nM in experiment [1] and > 30000 nM in experiment [2].

In the case of `CNC1CCN(c2ccc(-c3ccc4ncc5c(c4c3)n([C@H]3C[C@@H](OC)C3)c(=O)n5C)cn2)CC1` [Example 60, 1-(cis-3-methoxycyclobutyl)-3-methyl-8-[6-[4-(methylamino)-1-piperidyl]-3-pyridyl]imidazo[4,5-c]quinolin-2-one], the IC50 is 0.502 nM in experiment [1] and > 30000 nM in experiment [2].
